Data set [1] concerns human gut microbiome samples. Nature of the data set: Combinatorial drug pools incubated with human gut microbiome samples, LC-qTOF MS. The note with it: for metabolism by the human gut microbiome (log2 fold change in amount of drug): 11 individuals randomly selected from the 60 studied, time span of 24 hours. It counts as in vitro ADME. From the text: Beginning with the 1,760 FDA-approved drugs in the MicroSource Pharmakon library, a single UHPLC-qTOF MS method was optimized (C18 column; methanol:water gradient; positive ionization mode) that maximizes the number of detected drugs while minimizing run time. […] These drugs, whose molecular weights vary from ˜155 to ˜800 Da, span a wide range of clinical indications. Many have limited or highly variable bioavailability. Other criteria (specific chemical groups, bioavailability, etc) may be used to select other reference drugs, or drugs may be selected from pre-clinical compound libraries. A computational simulation was performed to determine the number of inputs (drugs) that can be represented in increasing numbers of pools, as a function of changing parameters for replicates and overlap. One such pooling scheme assigns each of 271 drugs to a subset of 21 pools, such that each drug is placed in 4 pools but shares a pool with each other drug at most twice as shown in FIG. 5B. FIG. 5B illustrates combinatorial pooling of 271 drugs indicated in black circles into 21 pools (A-U). Pools V-X are no-drug controls. Other pooling schemes may alter the number of drugs, the number of pools, the number of pools each drug is placed in, or the overlap between the pooling patterns of each drug. […] Each of these pools was incubated with each of 60 human gut microbiome samples and 76 defined bacterial species/strains. Samples were collected over time. Liquid chromatography-coupled quadrupole time-of-flight mass spectrometry (MS) described above was used to quantify drug levels by targeted analysis. For each candidate drug-microbiome interaction, 4 pools provide quadruplicate replication for each drug in 4 distinct contexts of other drugs. The other pools serve as negative controls. In this manner, over 16,000 time-series profiles (271 drugs by 60 communities) were collected, each in quadruplicate, from only 21 drug pools.

Data set [2] can be described thus: Liver S9 enzyme assay of conversion to BVU. It counts as in vitro ADME. The method, then:
Human and murine S9 liver fractions are purchased from Thermo Fisher Scientific (HMS9L and MSMCPL, respectively). Enzyme assays are performed for the deglycosylation of arabinosyluracil derivatives. In brief, assays are performed at 37° C. Reaction volumes are 150 μL with liver S9 fractions at 5 μg/μL and BRV or SRV at 100 μM in 10 mM phosphate buffer (pH 7.4). Reactions are initiated by addition of drugs to pre-warmed reaction mixture. 10 μL samples are collected and quenched in 10 μL acetonitrile on ice at 0, 5, 10, 15, 20, 30, 45, 60, 90, 120, 180, 270, and 360 min after initiation. Substrates and reaction product are extracted and quantified by LC-MS as described below.

The conditions of data set [3]: patients taking 5-fluorouracil; before withdrawal from the market; cited from earlier work.
The test system of data set [4] is BT4554. Nature of the data set: B. thetaiotaomicron loss-of-function screen, bt4554 deletion and complementation. It counts as in vitro ADME, Bacteroides thetaiotaomicron. The following applies: BT4554 dependence. From the text: Two independent strategies were developed to identify the microbiome-encoded DMEs responsible for these chemical transformations. For members of the Bacteroides (the most prominent genus in the human gut microbiome in the experiments), Proteobacteria, and other genetically tractable species, Insertion Sequencing (INSeq) is used to make mapped, arrayed transposon mutant libraries as described in Goodman 2009 and Goodman 2011. From these libraries, a representative set of mutants was identified that collectively include disruptions in most non-essential genes. Each mutant was incubated with the pool of drugs metabolized by the parent species. Genes required for drug metabolism by LC-MS were identified as above.
1,352 B. thetaiotaomicron mutants were selected from an arrayed library as described in Goodman 2009 that disrupt ˜70% of its non-essential genes. Each mutant was incubated with a pool of 30 drugs metabolized by this organism. Drug levels were measured over time as above. […] FIGS. 10A-C show two examples: one of these is brivudine, an antiviral whose primary metabolite (bromovinyluracil; BVU) is dangerously toxic for patients taking 5-fluorouracil, a principal therapy for colorectal cancer. With reference to FIGS. 10A-C, transposon mutants representing disruptions in 70% of B. thetaiotaomicron (Bt) non-essential genes were screened for metabolism of 30 drugs targeted by the parent strain.
The contribution of microbial drug metabolism to serum drug and metabolite exposure was directly quantified by specifically modulating this activity in otherwise identical mice. To this end, the capacity of ten individual bacterial species was first determined, representing five major phyla that dominate the mammalian gut microbiota, for their capacity to convert BRV to BVU as illustrated in FIG. 14A. […]
Frozen stocks are re-suspended in 4 mL pre-reduced GMM and incubated anaerobically at 37° C. for 14 h. […] Substrates and reaction product are extracted and quantified by LC-MS as described below. […]

The test system of data set [5] is 76 defined human gut commensals. The data set is classed as in vitro ADME. The method, then:
Using the combinatorial pooling method described above, each of the 21 drug pools was incubated, plus 3 no-drug control pools, with 76 defined human gut commensals from phyla shown in FIG. 8 grown in pure culture. Over 20,000 time-series profiles were collected, each in quadruplicate, of these specific drug-microbe interactions.

The values that follow come from patent US20210183467A1, “SYSTEM AND METHOD FOR USING MICROBIOME TO DE-RISK DRUG DEVELOPMENT” (YALE UNIVERSITY, priority 2018, published 2021).

Structures are written as SMILES.

For the compound `CC(=O)OCC(CCn1cnc2cnc(N)nc21)COC(C)=O` [Famcyclovir], the “metabolism by the human gut microbiome (log2 fold change in amount of drug)” value in data set [1] was “metabolized by the human gut microbiome”.
With `O=c1[nH]c(=O)n([C@@H]2O[C@H](CO)[C@@H](O)[C@@H]2O)cc1/C=C/Br` [SRV, sorivudine], the “conversion of SRV to BVU” value in data set [2] (human S9 liver fractions) and in data set [2] (murine S9 liver fractions) was “slowly converted” in each case. Besides, the “patients killed by BVU from the drug” value in data set [3] is reported as 18 patients. In data set [4], the “conversion of SRV to BVU by B. thetaiotaomicron” value was “slowly converts SRV to BVU in a BT4554-dependent manner”.
`CC(=O)OCC(=O)[C@@]12N=C(C)O[C@@H]1C[C@H]1[C@@H]3CCC4=CC(=O)C=C[C@]4(C)[C@H]3[C@@H](O)C[C@@]12C` [deflazacort]: the “metabolism by individual species” value in data set [5] is on record as “most of the fast metabolizers of this drug are Bacteroides”.
For `Cc1nc2n(c(=O)c1CCN1CCC(c3noc4cc(F)ccc34)CC1)CCCC2` [risperidone], in data set [1], the “metabolism by the human gut microbiome (log2 fold change in amount of drug)” value is “metabolized by the human gut microbiome”.
Regarding `COc1ccc(/C=C/C(=O)Nc2ccccc2C(=O)O)cc1OC` [tranilast], in data set [1], the “interpersonal variability of metabolism by gut microbiome” value is “one individual that metabolized the drug to a much greater extent than the others” and the “metabolism by the human gut microbiome (log2 fold change in amount of drug)” value was “metabolized by the human gut microbiome”.
